Test results taken from US20230129364A1, “PYRROLIDINE DERIVATIVE, AND PHARMACEUTICAL COMPOSITION FOR PREVENTING OR TREATING BETA-AMYLOID OR TAU PROTEIN-ASSOCIATED DISEASES CONTAINING SAME” (YONSEI UNIVERSITY, UNIVERSITY - INDUSTRY FOUNDATION (UIF), priority 2019, published 2023).

Experiments:
Assay type in all cases: biochemical
[1] = target: T1, aggregated tau protein (wild-type K18) (Homo sapiens, UniProt P10636); assay: Tau protein aggregate degradation test (thioflavin T assay); conditions: pre-aggregated tau, further 5 days at 37° C., ThT fluorescence vs control = 100%
T1 construct: Tau protein (wild-type K18)
Method: Tau protein (wild-type K18) was dissolved in phosphate-buffered saline (PBS, pH 7.4) at a concentration of 1 mg/mL to prepare a tau protein solution. 0.1 mg/mL of heparin and 100 μM dithiothreitol (DTT) were added to 1 mg/mL of the tau protein solution, followed by incubation at 37° C. for 5 days to induce tau protein aggregation. The aggregated tau protein was mixed with each test compound in an amount of 50 or 500 μM such that the final concentration reached 0.5 mg/mL, followed by further incubation at 37° C. for 5 days to induce reaction.
The degradation effect of each compound on the tau aggregates was measured by thioflavin T (ThT) assay (see Example 2). More specifically, 25 μL of the reaction solution was charged in each well of a 96-well plate for fluorescence analysis and 75 μL of the prepared thioflavin-T solution was charged in each well. The reaction was allowed to proceed at room temperature in a dark laboratory for 5 minutes and then fluorescence values were measured at an excitation wavelength of 450 nm and an emission wavelength of 485 nm using a multi-mode microplate reader.
The ratio of the fluorescence value measured in the group obtained by treating with each test compound to 100% of the fluorescence value of the group (control group) obtained by treating only with tau proteins and inducing aggregation for 5 days is set forth in Table 6 below: […]

[2] = target: T2, aggregated beta-amyloid; human Aβ 1-42 (UniProtKB-P05067, a.a. 672-713) (Homo sapiens, UniProt P05067); assay: Beta-amyloid aggregate degradation test (thioflavin T assay); conditions: pre-aggregated Aβ, further 3 days at 37° C., ThT fluorescence vs control = 100%
T2 construct: UniProtKB-P05067, a.a; 672-713
Method: Aβ (beta-amyloid; human A3 1-42 monomer (UniProtKB-P05067, a.a. 672-713)) was dissolved at a concentration of 10 mM in dimethyl sulfoxide (DMSO), and the resulting solution was diluted to 250 μM using distilled water, and then incubated at 37° C. for 3 days to induce aggregation. The aggregated beta-amyloid was added with each test compound in an amount of 50 or 500 μM such that the final concentration reached 25 μM, and was further cultured at 37° C. for 3 days to induce reaction. The aggregate degradation effect of each test compound was measured by thioflavin T (ThT) assay (see Example 2). Specifically, 25 μL of the reaction solution was charged in each well of a 96-well plate for fluorescence analysis and 75 μL of the prepared thioflavin-T solution was charged in each well. The reaction was allowed to proceed at room temperature in a dark laboratory for 5 minutes and then fluorescence values were measured at an excitation wavelength of 450 nm and an emission wavelength of 485 nm using a multi-mode microplate reader. The ratio of the fluorescence value measured in the group obtained by treating with each test compound to 100% of the fluorescence value of the group (control group) obtained by treating only with beta-amyloids and inducing aggregation for 3 days is set forth in Table 4 below: […]

[3] = target: T3, Tau protein (wild-type K18) (Homo sapiens, UniProt P10636); assay: Tau protein aggregation inhibition test (thioflavin T assay); conditions: heparin/DTT-induced aggregation, 37° C. 5 days, ThT fluorescence vs tau-only control = 100%
T3 construct: Tau protein (wild-type K18)
Method: Tau protein (wild-type K18) was dissolved in phosphate-buffered saline (PBS, pH 7.4) at a concentration of 1 mg/mL to prepare a tau protein solution. In order to induce aggregation of tau proteins, 0.1 mg/mL of heparin and 100 μM dithiothreitol (DTT) were added to 1 mg/mL of the tau protein solution, followed by incubation at 37° C. for 5 days. At this time, the result was mixed with each test compound (50, 500 μM) such that the final concentration reached 0.5 mg/mL, followed by further incubation.
The inhibitory effect of each compound against tau aggregation was measured based on the intensity of fluorescence by thioflavin T (ThT) assay (see Example 2). More specifically, 25 μL of the reaction solution was charged in each well of a 96-well plate for fluorescence analysis, and 75 μL of the prepared thioflavin-T solution was then charged in each well. The reaction was allowed to proceed at room temperature in a dark laboratory for 5 minutes, and then fluorescence values were measured at an excitation wavelength of 450 nm and an emission wavelength of 485 nm using a multi-mode microplate reader.
The ratio of the fluorescence value measured in the group obtained by treating with each test compound to 100% of the fluorescence value of the group (control group) obtained by treating only with tau proteins and inducing aggregation for 5 days is set forth in Table 5 below: […]

T2 sequence (P05067 672-713): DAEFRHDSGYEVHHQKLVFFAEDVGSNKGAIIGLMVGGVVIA
T1 sequence (P10636 561-685 limits assumed): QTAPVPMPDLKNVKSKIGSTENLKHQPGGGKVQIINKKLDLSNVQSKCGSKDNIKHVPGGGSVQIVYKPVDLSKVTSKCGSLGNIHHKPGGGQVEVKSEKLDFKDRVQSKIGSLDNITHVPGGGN
T3 sequence (P10636 561-685 limits assumed): as above

Row | SMILES | ThT fluorescence remaining (% of control) ([1]; 50 uM test compound) | ThT fluorescence remaining (% of control) ([1]; 500 uM test compound) | Beta-amyloid aggregate degradation activity (% of control) ([2]; 50 uM test compound) | Beta-amyloid aggregate degradation activity (% of control) ([2]; 500 uM test compound) | Tau aggregation remaining (ThT fluorescence, % of tau-only control) ([3]; 50 uM test compound) | Tau aggregation remaining (ThT fluorescence, % of tau-only control) ([3]; 500 uM test compound)
1 | O=C1NC(=O)/C(=C/c2c[nH]c3cccnc23)S1 [DN204289, (Z)-5-((1H-pyrrolo[3,2-b]pyridin-3-yl)methylene)thiazolidine-2,4-dione] | 57.57 % of control | 52.83 % of control | 83.66 % of control | 54.07 % of control | 60.71 % of control | 46.16 % of control
2 | O=C1NC(=O)C(Cc2ccoc2)S1 (stereo not shown) [DN204292, 5-(furan-3-ylmethyl)thiazolidine-2,4-dione] | 82.23 % of control | 77.46 % of control |  |  | 63.18 % of control | 60.16 % of control
3 | O=C1NC(=S)SC1Cc1ccoc1 (stereo not shown) [DN204305, 5-(furon-3-ylmethyl)-2-thioxothiazolidin-4-one] | 61.22 % of control | 56.43 % of control |  |  | 83.45 % of control | 56.13 % of control
4 | CN1C(=O)N/C(=C\c2c[nH]c3cccnc23)C1=O [DN204673, (Z)-5-((1H-pyrrolo[3,2-b]pyridin-3-yl)methylene)-3-methylimidazolidine-2,4-dione] |  |  | 86.89 % of control | 30.52 % of control |  | 55.87 % of control
5 | O=C1NC(=O)C(Cc2c[nH]c3ccccc23)S1 (stereo not shown) [DN204295, 5-((1H-indol-3-yl)methyl)thiazolidine-2,4-dione] | 89.98 % of control |  |  |  | 74.98 % of control | 59.6 % of control
6 | O=C1NC(=O)/C(=C/c2c[nH]c3ncccc23)S1 [DN204286, (Z)-5-((1H-pyrrolo[2,3-b]pyridin-3-yl)methylene)thiazolidine-2,4-dione] |  |  |  | 94.23 % of control | 56.04 % of control | 82.71 % of control
7 | O=C1NC(=O)C(Cc2cnc3ccccc3c2)S1 (stereo not shown) [DN204294, 5-(quinolin-3-ylmethyl)thiazolidine-2,4-dione] |  |  | 88.64 % of control | 74.80 % of control | 85.91 % of control | 
8 | O=C1NC(=O)/C(=C/c2ccoc2)S1 [DN204287, (Z)-5-(furan-3-ylmethylene)thiazolidine-2,4-dione] | 61.17 % of control | 71.42 % of control |  |  | 69.16 % of control | 59.86 % of control
9 | O=C1NC(=S)SC1Cc1ccsc1 (stereo not shown) [DN204306, 5-(thiophen-3-ylmethyl)-2-thioxothiazolidin-4-one] | 66.03 % of control | 73.34 % of control |  |  | 66.31 % of control | 52.16 % of control
10 | CCN1C(=O)/C(=C/c2cccs2)NC1=S [DN204815, (Z)-3-ethyl-5-(thiophen-2-ylmethylene)-2-thioxoimidazolidin-4-one] | 39.88 % of control | 36.97 % of control |  |  |  | 70.7 % of control
11 | O=C1NC(=O)C(Cc2ccsc2)S1 (stereo not shown) [DN204293, 5-(thiophen-3-ylmethyl)thiazolidine-2,4-dione] |  | 95.86 % of control |  |  | 55.97 % of control | 58.22 % of control
12 | O=C1NC(=S)S/C1=C\c1c[nH]c2ccncc12 [DN204807, (Z)-5-((1H-pyrrolo[3,2-c]pyridin-3-yl)methylene)-2-thioxothiazolidin-4-one] |  |  |  | 53.56 % of control | 93.56 % of control | 74.24 % of control
13 | O=C1NC(=S)SC1Cc1c[nH]c2ccccc12 (stereo not shown) [DN204301, 5-((1H-indol-3-yl)methyl)-2-thioxothiazolidin-4-one] | 80.31 % of control | 45.47 % of control |  |  | 90.337 % of control | 39.019 % of control
14 | O=C1NC(=O)/C(=C/c2c[nH]c3ccccc23)S1 [DN204285, (Z)-5-((1H-indol-3-yl)methylene)thiazolidine-2,4-dione] | 64.04 % of control | 78.38 % of control |  |  | 53.14 % of control | 42.56 % of control
15 | O=C1NC(=O)/C(=C/c2c[nH]c3cnccc23)S1 [DN204290, (Z)-5-((1H-pyrrolo[2,3-c]pyridin-3-yl)methylene)thiazolidine-2,4-dione] | 54.41 % of control | 40.38 % of control |  |  | 63.13 % of control | 42.61 % of control
